Tested on: transgenic Arabidopsis thaliana T1 plants (ALT-1-01, ALT-2-01, ALT-3-01; cytoplasmic or chloroplastic)
Assay: Herbicide tolerance of transgenic Arabidopsis thaliana T1 plants expressing thifensulfuron hydrolase, resistance classes counted after spraying
Type: in vivo
Conditions: for Highly resistant (number of plants with growth status consistent with blank solvent group) / Moderately resistant (number of plants with bolting height less than 1/2 of blank solvent group) / Non-resistant (number of plants dead) / Poorly resistant (number of plants still not capable of bolting): 1-fold field concentration (g ai/ha: Sulfometuron-methyl 30, iodosulfuron-methyl 10, mesosulfuron 14, oxasulfuron 60), 14 days after spraying
From the text: T1 transformants were initially selected from the background of untransformed seeds using a glufosinate selection scheme. About 40000 T1 seeds were screened, and 380 T1 positive transformants (PAT gene) were identified with a transformation efficiency of about 0.95%. The plants that were transformed with the recombinant expression vector DBN100632 were Arabidopsis thaliana plants having an ALT-1-01 nucleotide sequence located in the cytoplasm introduced (At cytoplasmic ALT-1-01), and the plants that were transformed with the recombinant expression vector DBN100631 were Arabidopsis thaliana plants having an ALT-1-01 nucleotide sequence located in the chloroplast introduced (At chloroplastic ALT-1-01); the plants that were transformed with the recombinant expression vector DBN100634 were Arabidopsis thaliana plants having an ALT-2-01 nucleotide sequence located in the cytoplasm introduced (At cytoplasmic ALT-2-01), and the plants that were transformed with the recombinant expression vector DBN100633 were Arabidopsis thaliana plants having an ALT-2-01 nucleotide sequence located in the chloroplast introduced (At chloroplastic ALT-2-01); and the plants that were transformed with the recombinant expression vector DBN100636 were Arabidopsis thaliana plants having an ALT-3-01 nucleotide sequence located in the cytoplasm introduced (At cytoplasmic ALT-3-01), and the plants that were transformed with the recombinant expression vector DBN100635 were Arabidopsis thaliana plants having an ALT-3-01 nucleotide sequence located in the chloroplast introduced (At chloroplastic ALT-3-01). The herbicide tolerance effects of At cytoplasmic ALT-1-01 T1 plants, At chloroplastic ALT-1-01 T1 plants, At cytoplasmic ALT-2-01 T1 plants, At chloroplastic ALT-2-01 T1 plants, At cytoplasmic ALT-3-01 T1 plants, At chloroplastic ALT-3-01 T1 plants and wild-type Arabidopsis thaliana plants on Sulfometuron-methyl were detected (14 days after sowing), respectively.
At cytoplasmic ALT-1-01 T1 plants, At chloroplastic ALT-1-01 T1 plants, At cytoplasmic ALT-2-01 T1 plants, At chloroplastic ALT-2-01 T1 plants, At cytoplasmic ALT-3-01 T1 plants, At chloroplastic ALT-3-01 T1 plants and wild-type Arabidopsis thaliana plants were sprayed with Sulfometuron-methyl (30 g ai/ha, 1-fold field concentration) and a blank solvent (water), respectively. Plants were counted for the resistance situations 14 days after spraying: those having a consistent growth status with the blank solvent (water) group after 14 days were classified as highly resistant plants, those having a bolting height less than ½ of that of the blank solvent (water) group after 14 days were classified as moderately resistant plants, those still not capable of bolting after 14 days were classified as poorly resistant plants, and those dead after 14 days were classified as non-resistant plants. Since each Arabidopsis thaliana T1 plant was an independent transformation event, a significant difference in individual T1 responses could be expected at a given dose.
At cytoplasmic ALT-1-01 T1 plants, At chloroplastic ALT-1-01 T1 plants, At cytoplasmic ALT-2-01 T1 plants, At chloroplastic ALT-2-01 T1 plants, At cytoplasmic ALT-3-01 T1 plants, At chloroplastic ALT-3-01 T1 plants and wild-type Arabidopsis thaliana plants in Example 4 were sprayed with iodosulfuron-methyl (10 g ai/ha, 1-fold field concentration), mesosulfuron (14 g ai/ha, 1-fold field concentration) and oxasulfuron (60 g ai/ha, 1-fold field concentration), respectively, in addition to Sulfometuron-methyl (30 g ai/ha, 1-fold field concentration) and the blank solvent (water). […]

[1] = At chloroplastic ALT-1-01 T1 plants
[2] = At chloroplastic ALT-2-01 T1 plants
[3] = At chloroplastic ALT-3-01 T1 plants
[4] = At cytoplasmic ALT-1-01 T1 plants
[5] = At cytoplasmic ALT-2-01 T1 plants
[6] = At cytoplasmic ALT-3-01 T1 plants

With COC(=O)c1ccccc1S(=O)(=O)NC(=O)Nc1nc(C)cc(C)n1 [Sulfometuron-methyl, 2-(4,6-dimethylpyrimidine-2-amino-formamido-sulfonyl) methyl benzoate] the “Highly resistant (number of plants with growth status consistent with blank solvent group)” value (shortened to “Highly resistant”) [1] was 27, the “Moderately resistant (number of plants with bolting height less than 1/2 of blank solvent group)” value (“Moderately resistant” for short) [1] was 0 and the “Non-resistant (number of plants dead)” value [1] was 1. For the same molecule, the “Poorly resistant (number of plants still not capable of bolting)” value [1] was 0, the “Highly resistant” value [2] was 29 and the “Moderately resistant” value [2] was 0. For the same molecule, the “Non-resistant (number of plants dead)” value [2] was 0, the “Poorly resistant (number of plants still not capable of bolting)” value [2] was 1 and the “Highly resistant” value [3] was 27. For the same molecule, the “Moderately resistant” value [3] was 0, the “Non-resistant (number of plants dead)” value [3] was 1 and the “Poorly resistant (number of plants still not capable of bolting)” value [3] was 0. The “Highly resistant” value [4] was 23, the “Moderately resistant” value [4] was 2 and the “Non-resistant (number of plants dead)” value [4] was 1. The “Poorly resistant (number of plants still not capable of bolting)” value [4] was 1, the “Highly resistant” value [5] was 24 and the “Moderately resistant” value [5] was 0. For the same molecule, the “Non-resistant (number of plants dead)” value [5] was 3, the “Poorly resistant (number of plants still not capable of bolting)” value [5] was 2 and the “Highly resistant” value [6] was 22. For the same molecule, the “Moderately resistant” value [6] was 1, the “Non-resistant (number of plants dead)” value [6] was 3 and the “Poorly resistant (number of plants still not capable of bolting)” value [6] was 1. For the same molecule, the “herbicide tolerance conferred by the thifensulfuron hydrolase (ALT-1, ALT-2 and ALT-3)” value (transgenic Arabidopsis thaliana T1 plants, 30 g ai/ha) was “conferred Sulfometuron-methyl herbicide tolerance to individual Arabidopsis thaliana plants”.

— US20190055576A1, “USE OF HERBICIDE-TOLERANT PROTEIN” (BEIJING DABEINONG TECHNOLOGY GROUP CO., LTD., priority 2016, published 2019)
